Measurements as given in patent publication US8859018B2, “Delivery carrier for antimicrobial essential oils” (Nestec S.A., priority 2010, dated 2014).

Experiments:
[1] = tested on: Aspergillus niger (mould); experiment: Challenge test with moulds in MOS / MAS; type: cell-based; conditions: for Week 0 (Log cfu/g) / Week 1 (Log cfu/g) / Week 2 (Log cfu/g) / Week 3 (Log cfu/g) / Week 4 (Log cfu/g): 0.10%; for mould growth: KS 0.10%; as to Week 1 (Log cfu/g): key: VG: growth; NVG: no growth; as to Week 2 (Log cfu/g): key: VG: growth; NVG: no growth; as to Week 3 (Log cfu/g): key: VG: growth; NVG: no growth; as to Week 4 (Log cfu/g): key: VG: growth; NVG: no growth
Experimental: Target microorganisms used for the challenge tests (CT) were Zygosaccharomyces bailii (yeast), Aspergillus niger (mould), Penicillium nalgiovense (mould) and Eurotium amstelodami (mould).
Stock culture of the mould (mould spores suspended in Tryptone Salt 0.1% diluent) was revived on RBA plates by doing a 3-point inoculation. The inoculated RBA plates were incubated at 30° C. for 36 hours or until the colonies sporulated. The spores were then aseptically sub-cultured onto PDA plates for mass harvesting of the spores. The inoculated PDA plates were then incubated for 30° C. for 36 hours or until the colonies sporulated. Then, the spores were aseptically harvested with a sterile cotton swabs and suspended in sterile Tryptone Salt 0.1% diluent. The suspensions were analyzed for mould spore counts on DG18 plates as well as for microbial contamination on PCA with Cycloheximide by spread plating 0.1-0.5 ml of suspension onto the agar plates respectively. Before the challenge test is initiated, the suspension inoculated with the mould spores was diluted aseptically with sterile Tryptone Salt 0.1% to the desired level such that the inoculation level in the product would be 2-3 log of colony-forming-units (cfu) of moulds per gram of product.
(§1) Challenge Test with moulds was according to the following steps: 1) Add 100 g of MOS into a 250 ml sterile Schott bottle with screw-cap cover; 2) Add 0.1 to 2 ml of mould (A. niger/P. nalgiovence/E. amstelodami) inoculum to meet the target inoculum of 10^2-10^3 cfu/g of MOS into the 100 g MOS and shake to mix well; 3) Pour 35 g of the inoculated MOS into a petri dish. Perform this in duplicate; 4) Pipette 1 g of inoculated MOS from the Schott bottle into 9 ml sterile Tryptone Salt 0.1% diluents and vortex. Perform this in duplicate; 5) Plate 0.1-0.5 ml of inoculated Tryptone Salt 0.1% onto DG18 plates at appropriate dilutions by Spread Plate Method. Incubate the agar plates at 25° C. for 5 days to enumerate the initial mould count; 6) Incubate the inoculated MOS in petri dishes at 30° C. for a week. Monitor for mould growth by visual observation after one week. Perform this mould growth monitoring for a period of 4 weeks; 7) The control was prepared by repeating steps 3 to 6 without using any inoculum. The control was plated onto PCA with Cycloheximide plates.
(§2) The method for producing MAS was the same as for the MOS production in experiment 4. The preparation of the microorganism cultures as well as the challenge tests were identical to the ones described in experiment 4 as well.

[2] = Un-inoculated control samples of the challenge tests in MOS / MAS; conditions: 0.10%
Experimental: as §1
Challenge Test with yeasts was according to the following steps: 1) Add 100 g of MOS into a 250 ml sterile Schott bottle with screw-cap cover; 2) Add 0.1 ml to 2 ml of yeast (Z. bailii) inoculum to meet the target inoculum of 10^2 to 10^3 cfu/g of MOS into the 100 g MOS and shake to mix well; 3) Pour 35 g of the inoculated MOS into two 150 ml sterile disposable polypropylene container with screw-cap cover; 4) Pipette 1 g of inoculated MOS into 9 ml sterile Tryptone Salt 0.1% diluent and vortex. Perform this in duplicate; 5) Plate 0.1 ml to 0.5 ml of inoculated Tryptone Salt 0.1% onto MEA at appropriate dilutions by Spread Plate Method. Incubate the plates at 30° C. for 3 days for the enumeration of the initial yeast count; 6) Incubate the inoculated MOS in 150 ml containers at 30° C. for a week; 7) After one week, repeat steps 4 to 6 for the weekly monitoring of Z. bailii growth behavior in MOS. Perform the monitoring for a period of 4 weeks; 8) The control was prepared by repeating steps 3 to 7 without using any inoculum.
as §2

[3] = MAGGI Abalone Sauce, age 0 month
[4] = MAGGI Abalone Sauce, age 1 month
[5] = MAGGI Abalone Sauce, age 3 month
[6] = MAGGI Abalone Sauce, age 6 month
[7] = MAGGI Abalone Sauce, age 10 month
[8] = MAGGI Abalone Sauce, age 12 month
[9] = MAGGI Oyster Sauce, age 0 month

C/C=C/C=C/C(=O)[O-].[K+] [KS, potassium sorbate]
Week 0 (Log cfu/g) [1, 3]: 1.9 Log cfu/g | Week 1 (Log cfu/g) [1, 3]: NVG | Week 2 (Log cfu/g) [1, 3]: NVG | Week 3 (Log cfu/g) [1, 3]: NVG | Week 4 (Log cfu/g) [1, 3]: NVG | Week 0 (Log cfu/g) [1, 4]: 1.15 Log cfu/g | Week 1 (Log cfu/g) [1, 4]: NVG | Week 2 (Log cfu/g) [1, 4]: NVG | Week 3 (Log cfu/g) [1, 4]: NVG | Week 4 (Log cfu/g) [1, 4]: NVG | Week 0 (Log cfu/g) [1, 5]: 2.19 Log cfu/g | Week 1 (Log cfu/g) [1, 5]: NVG | Week 2 (Log cfu/g) [1, 5]: NVG | Week 3 (Log cfu/g) [1, 5]: NVG | Week 4 (Log cfu/g) [1, 5]: NVG | Week 0 (Log cfu/g) [1, 6]: 2.16 Log cfu/g | Week 1 (Log cfu/g) [1, 6]: NVG | Week 2 (Log cfu/g) [1, 6]: NVG | Week 3 (Log cfu/g) [1, 6]: NVG | Week 4 (Log cfu/g) [1, 6]: NVG | Week 0 (Log cfu/g) [1, 7]: 3.67 Log cfu/g | Week 1 (Log cfu/g) [1, 7]: NVG | Week 2 (Log cfu/g) [1, 7]: NVG | Week 3 (Log cfu/g) [1, 7]: NVG | Week 4 (Log cfu/g) [1, 7]: NVG | Week 0 (Log cfu/g) [1, 8]: 2.96 Log cfu/g | Week 1 (Log cfu/g) [1, 8]: NVG | Week 2 (Log cfu/g) [1, 8]: NVG | Week 3 (Log cfu/g) [1, 8]: NVG | Week 4 (Log cfu/g) [1, 8]: NVG | mould growth ([1]; MAGGI Abalone Sauce, up to 12 months, clove leaf oil 0.06 wt % and 0.15 wt %): not detected | mould growth ([1]; MAGGI Oyster Sauce, garlic EO 0.06 wt % and 0.12 wt %): not detected | Week 0 (Log cfu/g) [1, 9]: 3.114 Log cfu/g | Week 1 (Log cfu/g) [1, 9]: NVG | Week 2 (Log cfu/g) [1, 9]: NVG | Week 3 (Log cfu/g) [1, 9]: NVG | Week 4 (Log cfu/g) [1, 9]: NVG | Week 0 (Log cfu/g) [2, 3]: <1.00 Log cfu/g | Week 1 (Log cfu/g) [2, 3]: <1.00 Log cfu/g | Week 2 (Log cfu/g) [2, 3]: <1.00 Log cfu/g | Week 3 (Log cfu/g) [2, 3]: <1.00 Log cfu/g | Week 4 (Log cfu/g) [2, 3]: <1.00 Log cfu/g | Week 0 (Log cfu/g) [2, 4]: <1.00 Log cfu/g | Week 1 (Log cfu/g) [2, 4]: <1.00 Log cfu/g | Week 2 (Log cfu/g) [2, 4]: <1.00 Log cfu/g | Week 3 (Log cfu/g) [2, 4]: <1.00 Log cfu/g | Week 4 (Log cfu/g) [2, 4]: <1.00 Log cfu/g | Week 0 (Log cfu/g) [2, 5]: <1.00 Log cfu/g | Week 1 (Log cfu/g) [2, 5]: <1.00 Log cfu/g | Week 2 (Log cfu/g) [2, 5]: <1.00 Log cfu/g | Week 3 (Log cfu/g) [2, 5]: <1.00 Log cfu/g | Week 4 (Log cfu/g) [2, 5]: <1.00 Log cfu/g | Week 0 (Log cfu/g) [2, 6]: <1.00 Log cfu/g | Week 1 (Log cfu/g) [2, 6]: <1.00 Log cfu/g | Week 2 (Log cfu/g) [2, 6]: <1.00 Log cfu/g | Week 3 (Log cfu/g) [2, 6]: <1.00 Log cfu/g | Week 4 (Log cfu/g) [2, 6]: <1.00 Log cfu/g | Week 0 (Log cfu/g) [2, 7]: <1.00 Log cfu/g | Week 1 (Log cfu/g) [2, 7]: <1.00 Log cfu/g | Week 2 (Log cfu/g) [2, 7]: <1.00 Log cfu/g | Week 3 (Log cfu/g) [2, 7]: <1.00 Log cfu/g | Week 4 (Log cfu/g) [2, 7]: <1.00 Log cfu/g | Week 0 (Log cfu/g) [2, 8]: <1.00 Log cfu/g | Week 1 (Log cfu/g) [2, 8]: <1.30 Log cfu/g | Week 2 (Log cfu/g) [2, 8]: <1.30 Log cfu/g | Week 3 (Log cfu/g) [2, 8]: <1.30 Log cfu/g | Week 4 (Log cfu/g) [2, 8]: <1.30 Log cfu/g | Week 0 (Log cfu/g) [2, 9]: <1.30 Log cfu/g | Week 1 (Log cfu/g) [2, 9]: <1.30 Log cfu/g | Week 2 (Log cfu/g) [2, 9]: <1.30 Log cfu/g | Week 3 (Log cfu/g) [2, 9]: <1.30 Log cfu/g | Week 4 (Log cfu/g) [2, 9]: <1.30 Log cfu/g
